The target of data set [1] is recombinant full-length human BTK kinase (Homo sapiens (Human), UniProt Q06187). Description: BTK kinase assay: ADP generation assay. The settings on record: 60 nM BTK, 1.6 μM ATP, 20 μM MBP substrate, 60 min. The data set is classed as biochemical. Here is the method: Test compounds were diluted to desired concentrations in kinase reaction buffer and briefly incubated with recombinant full-length human BTK kinase with a (His)6 tag (81.3 kDa; Invitrogen Corporation, Carlsbad, Calif.). The assay as described is based on volumes used in a standard 384 well format using solid, white-wall plates. The reaction was subsequently initiated by the addition of ATP and myelin basic protein (MBP) substrate (Millipore Corporation, Waltham, Mass.). Composition of the assay reaction mixture ([…]) was: 5% v/v DMSO, 60 nM BTK, 1.6 μM ATP, and 20 μM MBP substrate. After incubation at room temperature for 60 min, […] (Promega Corporation, Madison, Wis.) was added to each well and incubated for an additional 40 minutes. The reagent stopped the kinase reaction and depleted the unconsumed ATP. Kinase Detection reagent ([…]; Promega Corporation) was then added to each well. The Kinase Detection reagent comprises reagents to convert ADP to ATP and provide luciferase and luciferin to detect ATP. Luminescence was measured on an EnVision microplate reader (PerkinElmer). The amount of luminescence from each reaction is directly correlated with BTK kinase activity. Percent inhibition and IC50 values were calculated by comparing enzyme activity in drug-treated wells to the appropriate controls.
(§1) IC50 values are determined using GraphPad Prism 5 software. The data were entered as an X-Y plot into the software as percent inhibition for each concentration of the drug. The concentration values of the drug were log transformed and the nonlinear regression was carried out using the “sigmoidal dose-response (variable slope)” option within the GraphPad software to model the data and calculate IC50 values. The IC50 values reported are the concentration of drug at which 50% inhibition was reached.

The target of data set [2] is BTK kinase (Homo sapiens (Human), UniProt Q06187). Briefly: BTK kinase assay: time resolved-FRET (HTRF) assay. The settings on record: 10 nM BTK, 60 μM ATP, 1 μM substrate, 60 min. It is filed as biochemical. Here is the method:
The secondary assay was a time resolved-FRET kinase assay. Test compound are diluted to desired concentrations in kinase reaction buffer and briefly incubated with BTK kinase (as described above; Invitrogen). The reaction is initiated by the addition of ATP and enzyme substrate, HTRF® KinEASE™-TK Substrate-biotin (Cisbio US, Bedford, Mass.). The composition of the reaction (10 μl) was: 1% v/v DMSO, 10 nM BTK, 60 μM ATP, and 1 μM substrate. After incubation at room temperature for 60 min, the enzyme reaction is stopped by EDTA-containing buffer, which also contains europium-labeled (Eu^3+-Cryptate) anti-phosphotyrosine antibody (Cisbio) and Streptavidin-XL665 (Cisbio). The europium-labeled antibody generates a time-resolved FRET signal with the Stepavidin-XL665, which binds to the biotinylated TK substrate through the streptavidin conjugate when the substrate is phosphorylated. After one hour incubation at room temperature, fluorescence was measured with excitation of 320 nm and dual emission of 615 and 665 nm on an EnVision microplate reader.
as §1
On the technique in general: In TR-FRET formats the signal depends on donor and acceptor labels being close together.

In data set [3] the test system is Tec family of kinase, as well as EGFR and ErbB4. Briefly: Kinase profiling against a panel of 40 protein kinases. It is filed as biochemical. To be noted: 200 nM of test compound, ATP at Km apparent. Here is the method: The specificity of kinase inhibition was assessed with a representative compound, N-(3-(5-chloro-2-((4-morpholinophenyl)amino)pyrimidin-4-yl)phenyl)acrylamide, by determining the activity of this test compound against a panel of protein kinases. Kinase profiling was performed against a focus panel of kinases relevant to BTK and the Tec family of protein kinases. […] The results from this screen confirmed good activity against the Tec family of kinase, as well as EGFR and ErbB4. These later two kinases are known to have a cysteine residue in a position suitable for reaction with the Michaels acceptor of the disclosed compounds.

Data set [4] concerns the target wild-type EGFR (ErbB1) (Homo sapiens (Human), UniProt P00533). Description: LanthaScreen Eu Kinase Binding Assay, wild-type EGFR. To be noted: tracer displacement. Here is the method: (§2) Based on the results obtained in the foregoing experiment, representative compounds (N-(3-(5-chloro-2-((4-morpholinophenyl)amino)pyrimidin-4-yl)phenyl)acrylamide and N-(3-(6-((4-morpholinophenyl)amino)-1H-pyrazolo[3,4-d]pyrimidin-4-yl)phenyl)acrylamide) were assayed against wild-type and a mutant form (T790M) of EGFR. The compound activity against these kinases was determined using LanthaScreen™ Eu Kinase Bindng Assay (Invitrogen division of Life Technologies, Inc., Grand Island, N.Y.). The assay measures the activity of a compound to bind and displace a proprietary, Alexa Fluor® 647-labeled, ATP-competitive kinase inhibitor scaffold (kinase tracer) to EGFR.

In data set [5] the test system is OPM2 cells overexpressing BTK. Briefly: Cell viability assay in OPM2 cells overexpressing BTK. The data set is classed as cell-based. The settings on record: Homo sapiens, OPM-2, presence of overexpressed BTK. Here is the method: (§3) The cells were grown as described above, and for the assay cells were freshly harvested and then were plated in […] of appropriate media (as described above) at a density of 1000 cells per well in standard solid white-walled 384-well plates. Cells were allowed to attach by incubation overnight at 37° C. and 5% CO2. Test compounds were diluted to 10× concentrations in the appropriate media for the cell used (containing 3% DMSO) and […] of these dilutions were appropriate wells containing the cells. Test compounds were typically tested in triplicate (i.e. a given concentration of compound was assayed in triplicate wells). The plates containing the drug-treated cells and appropriate controls were incubated for 96 hours. At the end of the incubation, […] of ATP-lite (PerkinElmer, Inc., Waltham, Mass.) reagent were added to each well and luminescence signal was measured on an EnVision microplate reader.
(§4) The compounds were assessed in a cell-viability assay in OPM2 cells that either expressed endogenous levels of BTK or overexpressed BTK from an expression construct. […] Cell viability or proliferation was determined using the ATPLite Luminescence Assay (PerkinElmer, Inc., Waltham, Mass.); a decrease in luminescence activity correlates with a decrease in cell viability or proliferation.

Data set [6] can be described thus: Pharmacokinetic and bone marrow distribution study. It is filed as in vivo. The settings on record: CD1 mice, 5 mg/kg iv. Here is the method:
To determine the ability of a disclosed compound, N-(3-(5-chloro-2-((4-morpholinophenyl)amino)pyrimidin-4-yl)phenyl)acrylamide, to partition to the bone, a pharmacokinetic study in mice was carried out and coupled with a bone marrow distribution study (see FIG. 18). Briefly, CD1 mice were dosed intravenously (“iv”) with 5 mg/kg of the test compound and three animals per time point (5 min to 8 hrs) were sacrificed. Blood (plasma) and bone marrow tissue (femur) were collected from each animal and analyzed by LC/MS for standard PK parameters. […] The baseline distribution to the bone marrow of the compound was also determined.

Data set [7] deals with OPM2 cells. Description: Cell viability assay in OPM2 cells with endogenous levels of BTK. The settings on record: Homo sapiens, OPM-2, absence of overexpressed BTK. The data set is classed as cell-based. Here is the method:
as §3, §4

Data set [8] relates to Ramos RA-1. Briefly: Cell viability assay (ATP-lite), Ramos RA-1. The data set is classed as cell-based. To be noted: Homo sapiens, 96 hours. Here is the method:
(§5) All cell lines were cultured in RPMI-1640 media supplemented with 10% fetal bovine serum (“FBS”) and 1% penicillin/streptomycin (100 IU/mL penicillin and 100 μg/mL streptomycin) at 37° C. and 5% CO2. ATCC is the American Type Culture Collection (Manassas, Va.), and DSMZ is the Deutsche Sammlung von Mikroorganismen and Zellkulturen GmbH (German Collection of Microorganims and Cell Cultures; Braunschweig, Germany). The cell lines typically used in these studies are indicated below in Table II.
as §3, §1
The ability of compounds to inhibit the viability of cultured cells was determined using the cell viability assay described above. Activity data for representative compounds is shown below in Table III below for the compounds tested using the indicated cell lines (Ramos RA-1, GRANTA-519, and BxPC-3). IC50 values were determined as described above. If an IC50 is indicated as “n.d.”, it was not determined in the indicated cell line.

Data set [9] concerns GRANTA-519. Briefly: Cell viability assay (ATP-lite), GRANTA-519. The data set is classed as cell-based. The settings on record: Homo sapiens, 96 hours. Here is the method:
as §5
(§6) The cells were grown as described above, and for the assay cells were freshly harvested and then were plated in […] of appropriate media (as described above) at a density of 1000 cells per well in standard solid white-walled 384-well plates. Cells were allowed to attach by incubation overnight at 37° C. and 5% CO2. […] At the end of the incubation, […] of ATP-lite (PerkinElmer, Inc., Waltham, Mass.) reagent were added to each well and luminescence signal was measured on an EnVision microplate reader.
(§7) IC50 values are determined using GraphPad Prism 5 software. […]
(§8) The ability of compounds to inhibit the viability of cultured cells was determined using the cell viability assay described above. […] IC50 values were determined as described above. If an IC50 is indicated as “n.d.”, it was not determined in the indicated cell line.

Data set [10] concerns BxPC-3. Description: Cell viability assay (ATP-lite), BxPC-3. The data set is classed as cell-based. To be noted: Homo sapiens, 96 hours. Here is the method:
as §5, §6, §7, §8

Data set [11] has as its target mutant form of EGFR (T790M) (Homo sapiens (Human), UniProt P00533, T790M). Briefly: LanthaScreen Eu Kinase Binding Assay, EGFR T790M. To be noted: tracer displacement. Here is the method:
as §2

BTK kinase, sequence (Q06187 whole entry): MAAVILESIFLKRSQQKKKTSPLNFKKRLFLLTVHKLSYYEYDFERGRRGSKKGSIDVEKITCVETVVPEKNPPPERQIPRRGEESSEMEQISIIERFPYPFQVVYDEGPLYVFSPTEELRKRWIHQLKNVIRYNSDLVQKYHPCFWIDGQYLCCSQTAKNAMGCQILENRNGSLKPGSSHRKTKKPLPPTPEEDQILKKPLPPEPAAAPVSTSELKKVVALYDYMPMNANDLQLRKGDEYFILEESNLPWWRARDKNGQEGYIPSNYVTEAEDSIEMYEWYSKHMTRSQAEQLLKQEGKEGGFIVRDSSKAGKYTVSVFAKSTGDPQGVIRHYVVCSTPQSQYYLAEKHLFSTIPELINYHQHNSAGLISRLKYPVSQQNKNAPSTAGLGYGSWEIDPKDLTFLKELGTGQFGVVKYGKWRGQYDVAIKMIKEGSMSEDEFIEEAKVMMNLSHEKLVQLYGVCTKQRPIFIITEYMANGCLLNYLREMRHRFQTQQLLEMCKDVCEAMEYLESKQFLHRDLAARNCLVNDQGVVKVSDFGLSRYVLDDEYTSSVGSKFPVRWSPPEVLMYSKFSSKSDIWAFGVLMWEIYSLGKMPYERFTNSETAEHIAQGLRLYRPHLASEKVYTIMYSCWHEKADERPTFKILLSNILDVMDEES
recombinant full-length human BTK kinase, sequence (Q06187 whole entry): as above
wild-type EGFR (ErbB1), sequence (P00533 25-1210): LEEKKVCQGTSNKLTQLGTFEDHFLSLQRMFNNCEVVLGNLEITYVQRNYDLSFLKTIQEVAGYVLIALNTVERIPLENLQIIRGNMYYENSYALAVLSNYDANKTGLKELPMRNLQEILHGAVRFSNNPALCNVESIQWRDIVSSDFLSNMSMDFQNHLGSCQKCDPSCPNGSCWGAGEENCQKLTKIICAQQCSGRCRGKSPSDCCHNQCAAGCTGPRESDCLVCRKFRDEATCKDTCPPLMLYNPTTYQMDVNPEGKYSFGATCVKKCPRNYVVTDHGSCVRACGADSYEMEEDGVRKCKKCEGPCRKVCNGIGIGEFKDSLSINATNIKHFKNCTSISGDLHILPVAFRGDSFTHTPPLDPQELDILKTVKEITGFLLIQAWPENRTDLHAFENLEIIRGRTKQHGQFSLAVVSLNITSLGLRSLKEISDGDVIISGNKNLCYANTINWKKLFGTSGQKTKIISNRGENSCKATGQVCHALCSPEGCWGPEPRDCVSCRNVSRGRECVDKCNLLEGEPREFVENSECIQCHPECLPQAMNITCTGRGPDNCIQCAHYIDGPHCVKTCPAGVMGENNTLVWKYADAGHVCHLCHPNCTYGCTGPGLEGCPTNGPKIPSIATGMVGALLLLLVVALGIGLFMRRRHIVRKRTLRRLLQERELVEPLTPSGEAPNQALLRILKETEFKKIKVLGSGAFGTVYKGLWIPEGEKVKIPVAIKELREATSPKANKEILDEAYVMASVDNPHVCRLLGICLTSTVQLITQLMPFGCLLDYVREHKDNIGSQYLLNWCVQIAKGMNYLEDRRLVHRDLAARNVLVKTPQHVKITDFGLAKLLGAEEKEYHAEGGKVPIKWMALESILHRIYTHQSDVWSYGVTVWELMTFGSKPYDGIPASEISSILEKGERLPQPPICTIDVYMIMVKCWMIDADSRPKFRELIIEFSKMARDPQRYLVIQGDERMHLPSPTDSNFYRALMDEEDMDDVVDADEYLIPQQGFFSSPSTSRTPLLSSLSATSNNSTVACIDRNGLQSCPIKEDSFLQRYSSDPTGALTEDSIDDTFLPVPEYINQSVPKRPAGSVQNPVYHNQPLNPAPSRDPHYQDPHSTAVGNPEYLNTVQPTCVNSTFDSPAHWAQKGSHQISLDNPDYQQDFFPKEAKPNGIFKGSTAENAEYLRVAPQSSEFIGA
mutant form of EGFR (T790M), sequence (P00533 25-1210 T790M): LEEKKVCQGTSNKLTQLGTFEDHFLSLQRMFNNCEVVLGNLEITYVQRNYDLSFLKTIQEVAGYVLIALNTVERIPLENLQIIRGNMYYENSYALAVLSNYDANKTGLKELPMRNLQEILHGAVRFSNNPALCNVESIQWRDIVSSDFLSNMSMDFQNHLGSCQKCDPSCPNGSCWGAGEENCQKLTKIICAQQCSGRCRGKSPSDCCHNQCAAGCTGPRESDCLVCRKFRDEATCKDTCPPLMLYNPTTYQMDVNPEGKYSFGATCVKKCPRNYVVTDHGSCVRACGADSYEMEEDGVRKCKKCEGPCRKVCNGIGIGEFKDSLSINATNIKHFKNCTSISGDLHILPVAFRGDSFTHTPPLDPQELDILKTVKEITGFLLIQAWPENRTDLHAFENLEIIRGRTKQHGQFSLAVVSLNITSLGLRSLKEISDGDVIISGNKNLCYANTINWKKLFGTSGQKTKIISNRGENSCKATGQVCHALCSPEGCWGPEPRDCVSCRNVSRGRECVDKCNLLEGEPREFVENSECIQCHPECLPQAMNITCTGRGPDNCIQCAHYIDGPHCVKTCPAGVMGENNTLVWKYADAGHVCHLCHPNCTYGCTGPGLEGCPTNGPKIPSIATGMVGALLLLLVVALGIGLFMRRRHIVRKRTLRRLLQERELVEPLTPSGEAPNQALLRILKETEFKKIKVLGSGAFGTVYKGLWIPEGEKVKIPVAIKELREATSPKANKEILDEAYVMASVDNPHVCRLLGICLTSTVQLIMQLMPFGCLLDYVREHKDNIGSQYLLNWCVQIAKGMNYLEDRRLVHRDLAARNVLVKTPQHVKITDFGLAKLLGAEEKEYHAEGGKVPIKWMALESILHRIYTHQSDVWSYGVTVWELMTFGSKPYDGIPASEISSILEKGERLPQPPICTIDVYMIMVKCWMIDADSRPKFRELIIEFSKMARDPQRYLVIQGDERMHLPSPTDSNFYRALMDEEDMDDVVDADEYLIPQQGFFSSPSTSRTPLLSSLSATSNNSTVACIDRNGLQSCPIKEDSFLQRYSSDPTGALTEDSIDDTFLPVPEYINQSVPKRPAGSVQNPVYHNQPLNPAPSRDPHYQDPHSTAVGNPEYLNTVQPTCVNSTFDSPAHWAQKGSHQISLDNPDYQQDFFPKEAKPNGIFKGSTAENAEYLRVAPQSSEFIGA

By IC50 is commonly meant the concentration that gives 50% inhibition. In the case of `C=CC(=O)Nc1cccc(-c2nc(Nc3ccc(N4CCOCC4)c(F)c3)ncc2Cl)c1` [compound 7], the IC50 in [1] turned out to be 0.518 µM; in [2], 0.287 µM.

For the molecule `C=CC(=O)Nc1cccc(-c2nc(Cl)ncc2Cl)c1` [compound 11], in data set [1], the IC50 stood at 14.4 µM.

One may read the half-life as how long it takes for the measured level to halve. Take `C=CC(=O)Nc1cccc(-c2nc(Nc3ccc(N4CCOCC4)cc3)ncc2Cl)c1` [N-(3-(5-chloro-2-((4-morpholinophenyl)amino)pyrimidin-4-yl)phenyl)acrylamide]: the “percent inhibition in kinase profiling” value in data set [3] is given as “good activity”. Besides, the IC50 in data set [4] was 0.253 µM; in data set [5], about 0.586 µM; in data set [7], about 5.05 µM. Further, the “dwell time, bone marrow compared to plasma” value in data set [6] is “higher in the bone marrow compared to plasma”. Further, in [6], the plasma concentrations entry is recorded as “high plasma concentrations”. Moreover, in data set [6], the “time after which compound cleared in the elimination phase” value is over 10 min. The fold lower concentration in bone marrow than in plasma in data set [6] (mouse, bone marrow (femur) versus plasma, read-out: concentration in bone marrow compartment compared to plasma levels (fold less)) was about 50. Besides, the half-life in data set [6] (mouse, plasma) is about 45 min.

Regarding `C=CC(=O)Nc1cccc(-c2nc(Nc3ccc(N4CCN(C)CC4)cc3)nc3[nH]ncc23)c1` [compound 2], the IC50 in data set [8] was determined as 18.8 µM; in data set [9], 13.7 µM.

For `C=CC(=O)Nc1cccc(-c2nc(Nc3ccc(N4CCOCC4)cc3)ncc2Nc2ccccc2)c1` [compound 6], in data set [1], the IC50 was over 100 µM.

For `C=CC(=O)Nc1cccc(-c2nc(Nc3ccc(N4CCOCC4)cc3)ncc2Cl)c1` [compound 8], the IC50 in data set [10] was determined as 22.2 µM; in data set [8], 20.9 µM; in data set [1], 0.033 µM; in data set [2], 0.047 µM.

Consider `C=CC(=O)Nc1cccc(-c2nc(Nc3ccc(N4CCN(C)CC4)cc3)ncc2Cl)c1` [compound 9], for which, in [1], the IC50 came to 1.27 µM.

With `C=CC(=O)Nc1cccc(-c2nc(Nc3ccc(N4CCOCC4)cc3)nc3[nH]ncc23)c1` [compound 1], the IC50 is 7 µM in [10], over 30 µM in [8], 0.079 µM in [1] and 0.045 µM in data set [2].

Take `C=CC(=O)Nc1cccc(-c2nc(Nc3ccc(N4CCOCC4)c(F)c3)nc3[nH]ncc23)c1` [compound 3]: the IC50 amounted to 0.23 µM in data set [1] and 0.126 µM in [2].

In the case of `C=CC(=O)Nc1cccc(-c2nc(Cl)ncc2Nc2cccc(F)c2)c1` [compound 12], the IC50 in data set [1] was 0.829 µM.

With `C=CC(=O)Nc1cccc(-c2nc(Cl)ncc2Nc2ccccc2)c1` [compound 5], the IC50 in data set [1] is 1.81 µM.

On to `C=CC(=O)Nc1cccc(-c2nc(Cl)ncc2Br)c1` [compound 10], for which the IC50 in [1] is 4.7 µM.

Regarding `C=CC(=O)Nc1cccc(-c2nc(Nc3ccc(N4CCOCC4)cc3)nc3[nH]ncc23)c1` [N-(3-(6-((4-morpholinophenyl)amino)-1H-pyrazolo[3,4-d]pyrimidin-4-yl)phenyl)acrylamide], the results for the IC50 in data set [11] and in data set [4] were 0.00267 µM and 0.105 µM, respectively.

For the molecule `C=CC(=O)Nc1cccc(-c2nc(Cl)nc3[nH]ncc23)c1` [compound 4], the IC50 was over 30 µM in data set [8], 0.263 µM in [1], over 30 µM in [9] and 3.77 µM in [2].

The values above are taken from patent US8703767B2, “Substituted N-(3-(pyrimidin-4-yl)phenyl)acrylamide analogs as tyrosine receptor kinase BTK inhibitors” (University of Utah Research Foundation, priority 2011, dated 2014).
